From ChEMBL document CHEMBL1201862, “PubChem BioAssay data set” (2004)
Structures can show the parent of a compound that is named as a salt. Activity calls are given as the source filed them.

Key:
[1] = target: T1, Heat shock factor protein 1 (Mus musculus, UniProt P38532); experiment: inhibition of MG132-induced HSE-luciferase signal, confirmation, cell-based, NIH3T3, luminescence, dose retest (AID 2382); format: functional;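 also: NIH3T3 fibroblasts with HSF1-driven luciferase reporter stressed by proteasome inhibitor MG132; luminescence from HSF1-driven luciferase expression after 8 hours of MG132 stress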
T1 sequence (P38532 whole entry): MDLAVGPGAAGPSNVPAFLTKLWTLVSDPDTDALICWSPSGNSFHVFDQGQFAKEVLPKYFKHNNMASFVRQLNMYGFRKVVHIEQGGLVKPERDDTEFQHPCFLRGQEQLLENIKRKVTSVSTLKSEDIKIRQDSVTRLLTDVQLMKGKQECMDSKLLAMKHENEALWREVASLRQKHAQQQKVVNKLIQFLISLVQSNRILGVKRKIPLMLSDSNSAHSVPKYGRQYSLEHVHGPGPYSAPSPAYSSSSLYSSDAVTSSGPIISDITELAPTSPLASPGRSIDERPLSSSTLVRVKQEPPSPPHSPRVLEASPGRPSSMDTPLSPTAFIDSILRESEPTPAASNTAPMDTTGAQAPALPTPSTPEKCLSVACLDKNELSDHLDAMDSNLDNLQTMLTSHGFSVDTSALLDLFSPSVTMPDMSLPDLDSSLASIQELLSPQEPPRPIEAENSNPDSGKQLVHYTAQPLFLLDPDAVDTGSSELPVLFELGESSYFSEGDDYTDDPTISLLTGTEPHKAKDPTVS

[2] = HEp-2 cell cytotoxicity, dose response, cytotoxicity control for RSV inhibitor project, HTS (AID 2410); format: functional; settings: human respiratory syncytial virus
[3] = target: T2, Rac GTPase-activating protein 1 (Homo sapiens, UniProt Q9H0H5); experiment: MgcRacGAP GTPase-activating activity inhibitors, confirmation, biochemical, ADP Hunter fluorescence, primary and confirmatory (AID 624330); format: functional
T2 sequence (Q9H0H5 whole entry): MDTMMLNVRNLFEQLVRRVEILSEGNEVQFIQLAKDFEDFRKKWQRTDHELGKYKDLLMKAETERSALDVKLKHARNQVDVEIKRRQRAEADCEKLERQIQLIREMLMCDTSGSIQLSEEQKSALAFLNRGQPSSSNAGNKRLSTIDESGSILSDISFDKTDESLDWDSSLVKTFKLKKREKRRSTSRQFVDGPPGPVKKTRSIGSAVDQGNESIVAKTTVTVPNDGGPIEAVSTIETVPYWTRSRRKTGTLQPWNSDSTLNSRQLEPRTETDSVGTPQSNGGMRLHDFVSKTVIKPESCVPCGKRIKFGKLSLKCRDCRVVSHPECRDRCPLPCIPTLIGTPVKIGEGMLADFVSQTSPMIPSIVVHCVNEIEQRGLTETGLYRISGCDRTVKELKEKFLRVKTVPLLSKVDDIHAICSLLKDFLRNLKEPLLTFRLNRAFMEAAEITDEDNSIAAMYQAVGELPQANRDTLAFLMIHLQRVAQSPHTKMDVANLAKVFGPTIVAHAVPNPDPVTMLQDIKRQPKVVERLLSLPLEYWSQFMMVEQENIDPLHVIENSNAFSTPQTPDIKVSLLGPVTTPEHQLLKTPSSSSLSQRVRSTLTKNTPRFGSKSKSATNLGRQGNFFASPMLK

[4] = target: Cytochrome P450 3A4 (Homo sapiens, UniProt P08684);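 also: CYP3A4 tested as one member of a cytochrome P450 panel screen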
Sequence of Cytochrome P450 3A4 (P08684 whole entry): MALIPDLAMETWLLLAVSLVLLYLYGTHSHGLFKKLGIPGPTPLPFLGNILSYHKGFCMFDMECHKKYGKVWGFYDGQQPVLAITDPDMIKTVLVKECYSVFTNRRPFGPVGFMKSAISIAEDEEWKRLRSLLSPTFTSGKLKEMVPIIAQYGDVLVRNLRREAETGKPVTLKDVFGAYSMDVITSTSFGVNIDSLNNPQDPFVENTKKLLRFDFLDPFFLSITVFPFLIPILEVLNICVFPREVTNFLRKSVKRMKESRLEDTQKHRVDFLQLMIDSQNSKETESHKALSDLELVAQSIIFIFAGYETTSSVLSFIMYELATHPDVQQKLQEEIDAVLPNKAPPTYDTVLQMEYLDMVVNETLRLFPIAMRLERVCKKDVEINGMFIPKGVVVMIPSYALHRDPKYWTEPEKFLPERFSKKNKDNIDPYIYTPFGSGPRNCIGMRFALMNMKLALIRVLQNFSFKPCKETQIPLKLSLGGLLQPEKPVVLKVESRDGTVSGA

[5] = target: Cytochrome P450 2C9 (Homo sapiens, UniProt P11712)
Sequence of Cytochrome P450 2C9 (P11712 whole entry): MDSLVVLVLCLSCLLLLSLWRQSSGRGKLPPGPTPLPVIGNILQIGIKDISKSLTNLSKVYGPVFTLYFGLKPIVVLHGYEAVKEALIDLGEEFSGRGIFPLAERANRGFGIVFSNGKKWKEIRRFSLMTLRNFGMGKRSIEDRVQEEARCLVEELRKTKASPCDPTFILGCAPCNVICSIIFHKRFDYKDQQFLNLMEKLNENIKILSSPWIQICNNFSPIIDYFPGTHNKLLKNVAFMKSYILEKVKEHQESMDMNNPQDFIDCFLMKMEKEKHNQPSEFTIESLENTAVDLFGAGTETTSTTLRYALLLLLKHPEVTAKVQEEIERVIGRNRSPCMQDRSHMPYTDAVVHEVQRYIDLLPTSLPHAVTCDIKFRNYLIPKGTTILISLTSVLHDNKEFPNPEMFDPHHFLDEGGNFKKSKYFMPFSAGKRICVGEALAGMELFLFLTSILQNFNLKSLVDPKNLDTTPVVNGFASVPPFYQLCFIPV

[6] = target: Cytochrome P450 2C19 (Homo sapiens, UniProt P33261); experiment: Cytochrome panel assay with activity outcomes. Panel member name: p450-cyp2c19 Compounds with AC50 equal or less than 10 uM are considered active; format: functional; settings: read-out: AC50
Sequence of Cytochrome P450 2C19 (P33261 whole entry): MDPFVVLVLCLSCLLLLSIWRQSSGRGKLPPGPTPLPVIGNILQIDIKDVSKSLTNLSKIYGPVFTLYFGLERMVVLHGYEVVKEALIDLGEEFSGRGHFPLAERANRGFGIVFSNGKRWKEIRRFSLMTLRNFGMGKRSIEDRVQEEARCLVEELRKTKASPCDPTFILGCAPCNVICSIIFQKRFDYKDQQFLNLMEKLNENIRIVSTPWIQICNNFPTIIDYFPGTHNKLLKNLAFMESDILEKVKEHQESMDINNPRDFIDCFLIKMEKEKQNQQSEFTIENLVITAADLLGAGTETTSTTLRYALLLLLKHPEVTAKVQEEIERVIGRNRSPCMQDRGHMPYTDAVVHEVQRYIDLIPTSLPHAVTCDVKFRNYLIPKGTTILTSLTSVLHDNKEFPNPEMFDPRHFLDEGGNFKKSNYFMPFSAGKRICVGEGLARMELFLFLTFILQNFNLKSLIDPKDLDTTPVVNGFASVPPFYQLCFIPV

[7] = target: T3, Cytochrome P450 1A2 (Homo sapiens, UniProt P05177);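 also: PubChem cytochrome P450 panel assay, CYP1A2 panel member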
T3 sequence (P05177 whole entry): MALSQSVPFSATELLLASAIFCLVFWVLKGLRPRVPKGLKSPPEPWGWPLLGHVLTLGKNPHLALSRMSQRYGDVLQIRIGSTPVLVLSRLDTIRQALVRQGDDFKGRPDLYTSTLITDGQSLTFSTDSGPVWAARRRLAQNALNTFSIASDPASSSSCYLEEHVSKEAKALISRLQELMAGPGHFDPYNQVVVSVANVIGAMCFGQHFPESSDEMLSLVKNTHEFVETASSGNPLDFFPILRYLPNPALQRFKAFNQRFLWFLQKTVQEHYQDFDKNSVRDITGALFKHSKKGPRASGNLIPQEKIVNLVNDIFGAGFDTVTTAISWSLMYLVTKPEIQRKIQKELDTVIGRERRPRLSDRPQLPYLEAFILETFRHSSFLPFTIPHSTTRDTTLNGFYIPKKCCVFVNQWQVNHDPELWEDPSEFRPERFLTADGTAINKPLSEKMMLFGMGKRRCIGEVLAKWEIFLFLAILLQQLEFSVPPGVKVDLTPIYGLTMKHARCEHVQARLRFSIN

[8] = target: T4, Streptokinase A (Streptococcus pyogenes serotype M1, UniProt P10520); experiment: S. pyogenes streptokinase expression inhibitors, potency, dose response, plasminogen activation absorbance, OD405 (AID 1914); format: functional, Streptococcus pyogenes M1 GAS;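 also: secreted streptokinase activity via plasminogen activation per viability signal from cell pellet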
T4 sequence (P10520 whole entry): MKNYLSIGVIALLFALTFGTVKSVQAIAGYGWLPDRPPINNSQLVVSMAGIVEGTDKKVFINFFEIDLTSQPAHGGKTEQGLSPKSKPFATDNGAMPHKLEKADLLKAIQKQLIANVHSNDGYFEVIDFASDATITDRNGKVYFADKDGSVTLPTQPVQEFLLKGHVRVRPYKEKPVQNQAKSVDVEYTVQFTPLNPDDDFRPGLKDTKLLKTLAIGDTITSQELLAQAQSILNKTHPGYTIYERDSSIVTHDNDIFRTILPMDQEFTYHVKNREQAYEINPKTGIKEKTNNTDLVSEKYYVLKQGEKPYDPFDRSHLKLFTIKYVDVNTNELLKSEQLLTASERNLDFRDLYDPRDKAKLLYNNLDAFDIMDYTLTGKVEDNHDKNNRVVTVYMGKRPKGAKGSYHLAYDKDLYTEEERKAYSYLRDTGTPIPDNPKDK

[9] = system: Streptococcus; experiment: Group A Streptococcus viability loss, dose response, counter-screen for streptokinase expression inhibitor project, luminescence, BacTiterGlo (AID 1915); format: functional, organism-based;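 also: potency for reduction of bacterial viability or growth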
[10] = system: Streptococcus sp. 'group A'; experiment: growth inhibition of control SK(-) GAS strain, dose response, counter-screen for streptokinase expression inhibitor project, luminescence, kanamycin, BacTiterGlo, confirmation (AID 1900); format: functional, organism-based
[11] = Luminescence Cell-Based Dose Retest to Confirm Inhibitors of Cancer Stem Cells. [Related pubchem assays (depositor defined):AID2717, AID2721]; format: functional; settings: Homo sapiens

NC(=O)Cc1ccc(C(=O)c2ccc(Cl)cc2)s1
EC50 [1]: > 195 µM (not active)

CCOC(=O)c1cc(-c2ccccc2)sc1NC(=O)C(C)OC(=O)c1ccncc1 (centres undefined)
CC50 [2]: 47.6 µM (active)

CCCN1CCC(=O)N([C@H](CSc2ccccc2)Cc2ccccc2)CC1
EC50 [1]: > 195 µM (not active)

Cn1c(=O)c2ccccc2n(Cc2ccccc2Cl)c1=O
EC50 [1]: > 195 µM (not active)

CC(C)c1ccc(NC(=O)CNCC(c2ccccc2)N(C)C)cc1 (centres undefined)
IC50 [3]: 109 µM (active)

COc1ccc(NC(=O)CCN2CCN(S(=O)(=O)c3ccc(OC)cc3)CC2)cc1
EC50 [1]: > 195 µM (not active)

CCOC(=O)C1CCN(C(=O)COc2cc(C)c(Br)cc2C)CC1
EC50 [1]: > 195 µM (not active)

Cc1ccccc1OCC(=O)NCCS(=O)(=O)N1CCN(c2ccc(F)cc2)CC1
CC50 [2]: 38.1 µM (active)

Cc1ccc(NC(=O)[C@@H](C)NC(=O)[C@@H]2Cc3ccccc3CN2)cc1
EC50 [1]: > 195 µM (not active)

COCCNC(=O)/C(C#N)=C/c1ccc(-c2ccc(OC)cc2[N+](=O)[O-])o1
AC50 [4]: 3.16 µM (inconclusive) | AC50 [5]: 39.8 µM (inconclusive) | AC50 [6]: 3.55 µM (inconclusive) | AC50 [7]: 2 µM (inconclusive)

c1cncc(-c2nnc(SCc3nc4ccccc4[nH]3)o2)c1
EC50 [1]: 126 µM (active)

O=C(OCCN1CCN(c2ncc(C(F)(F)F)cc2Cl)CC1)c1ccc(Cl)cc1
EC50 [1]: > 195 µM (not active)

N#CCCn1nnc(-c2ccccc2F)n1
EC50 [1]: > 195 µM (not active)

Cc1ccc(NC(=O)CC2C(=O)N(Cc3ccccc3)C(=S)N2NC(=O)c2ccccc2)c(C)c1 (centres undefined)
CC50 [2]: > 50 µM (active)

CCc1nc(NCCO)c(C#N)c2c1CCCC2
CC50 [2]: 30.6 µM (active)

Cc1csc(Nc2ccc(Cl)cc2)[n+]1-c1ccc(Cl)cc1
EC50 [8]: 29.9 µM (active) | EC50 [9]: > 150 µM (not active) | EC50 [10]: 12.9 µM (active)

O=C(c1ccc(F)cc1)N1CCN(c2cc(N3CCCCC3)c(F)cc2[N+](=O)[O-])CC1
CC50 [2]: 16.6 µM (active)

CC(C)N(C(=O)CSc1nc(COc2ccccc2)nc2ccccc12)C(C)C
CC50 [2]: 23.7 µM (active)

CC(C)(C)Cc1nnc(NS(=O)(=O)c2ccc(F)cc2)s1
EC50 [1]: > 195 µM (not active)

COc1ccc2oc(C(=O)OCC(=O)NC3(C#N)CCCC3)c(C)c2c1
EC50 [8]: > 150 µM (not active) | EC50 [9]: > 150 µM (not active) | EC50 [10]: 57.9 µM (active)

O=C(CNC1CC1)Nc1cc(C(F)(F)F)ccc1Cl
IC50 [3]: 123 µM (active)

CCO[C@H]1OC(C(=O)NCc2ccccc2)=C[C@@H](c2ccc(Br)cc2)[C@@H]1CCCO
CC50 [2]: 22 µM (active)

Cn1c(CNC(=O)CNC(=O)c2ccc(F)cc2)cc(=O)n(C)c1=O
EC50 [8]: > 150 µM (not active) | EC50 [9]: > 150 µM (not active) | EC50 [10]: > 150 µM (not active)

COc1cc(OC)c(C(=O)Nc2ccc(N(C)C)cc2)cc1OC
IC50 [3]: 22.1 µM (active)

COc1nc(-c2ccc(C)cc2)ccc1-c1noc(-c2cccnc2)n1
CC50 [2]: 31.1 µM (active)

Nc1nc(CN2CCN(c3ccc(F)cc3)CC2)nc(N2CCCc3ccccc32)n1
EC50 [8]: > 150 µM (not active) | EC50 [9]: > 150 µM (not active) | EC50 [10]: 2.01 µM (active)

CCOC(=O)c1sc(NC(=O)c2ccc(S(=O)(=O)N3CCCCCC3)cc2)nc1-c1ccccc1
CC50 [2]: 7.07 µM (active)

COc1ccc(C2NS(=O)(=O)N=C2N)cc1 (centres undefined)
EC50 [1]: > 195 µM (not active)

Cc1ccc(C(=O)Nc2ccc(C(=O)O)cc2NC(=O)c2ccc(C)cc2)cc1
EC50 [1]: 14.7 µM (active)

c1ccc(-c2nnc3sc(CN4CCc5ccccc54)cn23)cc1
AC50 [11]: 7.58 µM (active)

COC(=O)C1=C(C)N(CCCC(=O)O)C(=O)NC1c1ccc(C#N)cc1 (centres undefined)
EC50 [1]: > 195 µM (not active)

CC(=O)NC(Cc1ccccc1)C(=O)Oc1ccc2ccccc2c1 (centres undefined)
IC50 [3]: 39.7 µM (active)

Clc1ccc(/C=C/c2nc(Cl)c(-c3ccc(Cl)cc3)c(Cl)n2)cc1
EC50 [8]: 10 µM (active) | EC50 [9]: > 150 µM (not active) | EC50 [10]: 33 µM (active)

CCOc1ccc(/C=N/NC(=S)NC2CC3C=CC2C3)cc1 (centres undefined)
EC50 [8]: > 150 µM (not active) | EC50 [9]: > 150 µM (not active) | EC50 [10]: > 150 µM (not active)

N#C/C(=C\c1c(Cl)cccc1Cl)c1nc2ccccc2[nH]1
CC50 [2]: 20.3 µM (active)

COc1ccc(NC(C)C(=O)N/N=C/c2c(O)ccc3ccccc23)cc1 (centres undefined)
EC50 [9]: 1.25 µM (active) | EC50 [10]: 1.95 µM (active)

C=CCn1/c(=N/C(=O)C2COc3ccccc3O2)sc2cccc(OC)c21 (centres undefined)
CC50 [2]: 18.4 µM (active)

Cc1ccc(C(C)C)c(OCc2ccc(C(=O)N/N=C/c3ccc(O)c(O)c3)cc2)c1
AC50 [11]: 3.23 µM (active)

Cc1cccc(N2CCC(/N=C/N(C)C)=N2)c1
IC50 [3]: 29.2 µM (active)

Cc1cc(N/N=C/c2ccccc2Cl)nc(NCc2ccccc2)n1
AC50 [11]: 3.88 µM (active)

COc1cc(/C(C)=N/N2CCN(c3ccccc3OC)CC2)ccc1O
IC50 [3]: 208 µM (active)

Cn1c(=O)[nH]c(=O)c2c1[nH]c(=S)n2Cc1ccc(Cl)cc1
IC50 [3]: 31.7 µM (active)

Cc1ccsc1/C=C/C1=NCCCN1C [MORANTEL TARTRATE]
EC50 [1]: > 195 µM (not active)
